Measured values published in patent publication US20100179225A1, “POI Prevention” (CYTOKINE PHARMASCIENCES, INC., priority 2008, published 2010).

Assays:
neutrophils in ME = assay: Neutrophil infiltration into rat ME (myeloperoxidase staining) after IM; type: in vivo; conditions: rats, 24 hours after IM (FIG. 10)
Experimental: Animals within examples referring to FIGS. 2-9 were treated 90 minutes before operation with 0 mg/kg (placebo group), or 5 mg/kg bodyweight CNI-1493. In further experiments in rats or mice 0.1, 1.0 or 10 mg/kg CPSI-2364 were administered 90 minutes before surgical procedure via oral route. Oral (p.o.) administration was performed via a gastric tube. CNI-1493 and CPSI-2364 were dissolved in 2.5% mannitol. Placebo and CNI-1493 or CPSI-2364 groups were subdivided in two further groups. One was sham operated (laparotomy without IM) while the other underwent laparotomy followed by IM.
Specimens for histochemical analysis were prepared 24 h after operation and performed on whole mounts of the distal jejunum, as described before in detail (n=5-7 each group) 9. In brief, jejunal segments were opened, immersed in chilled Krebs-Ringer buffer (KRB) and fixed in 100% ethanol for 10 minutes. After washing with KRB, mucosa and submucosa were stripped off and ME whole mounts were used for detection of myeloperoxidase (MPO) positive cells (neutrophils). […] MPO+-cells were counted under a microscope (TE-2000, Nikon, Duesseldorf, Germany) in 5 randomly chosen areas in each specimen.
Example 3 was repeated in rats and mice, i.e. the infiltration of neutrophils within the ME after preoperative p.o. application of the drug was analyzed (FIGS. 10 and 11). […]

ED1 positive cells = assay: ED1 positive cell (monocyte/macrophage) infiltration into graft muscularis after small intestinal transplantation; type: in vivo, Lewis rats; conditions: 1 mg/kg i.v.; 18 h after reperfusion
Experimental: Syngeneic orthotopic small intestinal transplantation was performed in Lewis rats as previously described (Schwarz N T, Nakao A, Nalesnik M A, Kalff J C, Murase N, Bauer A J. Protective effects of ex vivo graft radiation and tacrolimus on syngeneic transplanted rat small bowel motility. Surgery 2002; 131: 413-423). […] Then the graft vascular bed was perfused with chilled UW solution (University of Wisconcin) and the intestinal lumen was irrigated with 50 ml cold 0.9% NaCl solution containing […]. neomycin sulfate (Uro Nebacetin N, Nycomed, Germany). The graft was stored in cold UW solution during the preparation of the recipient. An end-to-side anastomosis between the graft aorta and the recipient infra-renal aorta, and between the graft vein and recipient vena cava, was performed. […]
ED1 and MPO+-cells were counted under a microscope (TE-2000, Nikon, Duesseldorf, Germany) in 5 randomly chosen areas in each specimen.
In order to evaluate cell populations which are known to be associated with inflammation processes and to initiate immunological processes within the muscularis, leukocyte infiltrates were evaluated after 18 h by MPO histochemistry (polymorphonuclear neutrophils) and ED1 immunohistochemistry (monocytes and passenger macrophages). […]

C/C(=N\N=C(N)N)c1cc(NC(=O)CCCCCCCCC(=O)Nc2cc(/C(C)=N/N=C(N)N)cc(/C(C)=N/N=C(N)N)c2)cc(/C(C)=N/N=C(N)N)c1.CS(=O)(=O)O.CS(=O)(=O)O.CS(=O)(=O)O.CS(=O)(=O)O [CPSI-2364]
neutrophils in ME compared to the placebo IM group (neutrophils in ME; 0.1 mg/kg bodyweight p.o.): led to the described results
neutrophils in ME compared to the placebo IM group (neutrophils in ME; p.o. preoperative): significant reduction of neutrophils
ED1 positive cells in muscularis (ED1 positive cells): 54.8 cells/field of view (magnification 200×)
